Data published in the NIST ThermoML archive (doi:10.1016/j.jct.2013.07.010).
Numbers after ± are expanded uncertainties.

Columns and labels:
[1] = cn = amount concentration of the nth substance listed, in mol/dm3; conditions: 101 kPa, Liquid; for viscosity: Capillary tube (Ostwald / Ubbelohde) method; for mass density: Vibrating tube method
[2] = 101 kPa, Liquid; for viscosity: Capillary tube (Ostwald / Ubbelohde) method; for mass density: Vibrating tube method

With `CO` [methanol] + CCCC[N+](CCCC)(CCCC)CCCC.[Br-] the viscosity ([1]; 298.15 K, c2 = 0) was 0.5451 ± 0.011 mPa·s, the mass density ([1]; 298.15 K, c2 = 0) was 786.62 ± 1 kg/m3 and the viscosity ([1]; 308.15 K, c2 = 0) was 0.476 ± 0.01 mPa·s. For the same molecule, the mass density ([1]; 308.15 K, c2 = 0) was 777.18 ± 1 kg/m3, the viscosity ([1]; 318.15 K, c2 = 0) was 0.4183 ± 0.0089 mPa·s and the mass density ([1]; 318.15 K, c2 = 0) was 767.74 ± 1 kg/m3.
`CCCC[N+](CCCC)(CCCC)CCCC.[Br-]` [tetrabutylammonium bromide] + CO showed a viscosity ([1]; 298.15 K, c1 = 0.02) of 0.5542 ± 0.012 mPa·s, a viscosity ([1]; 298.15 K, c1 = 0.04) of 0.581 ± 0.012 mPa·s and a viscosity ([1]; 298.15 K, c1 = 0.05) of 0.5973 ± 0.013 mPa·s. The mass density ([1]; 298.15 K, c1 = 0.02) was 790.69 ± 1 kg/m3, the mass density ([1]; 298.15 K, c1 = 0.04) was 792.74 ± 1 kg/m3 and the mass density ([1]; 298.15 K, c1 = 0.05) was 794.89 ± 1 kg/m3. It also gave a viscosity ([1]; 308.15 K, c1 = 0.02) of 0.4951 ± 0.01 mPa·s, a viscosity ([1]; 308.15 K, c1 = 0.04) of 0.5135 ± 0.011 mPa·s and a viscosity ([1]; 308.15 K, c1 = 0.05) of 0.5274 ± 0.011 mPa·s. The mass density ([1]; 308.15 K, c1 = 0.02) was 780.94 ± 1 kg/m3, the mass density ([1]; 308.15 K, c1 = 0.04) was 783.43 ± 1 kg/m3 and the mass density ([1]; 308.15 K, c1 = 0.05) was 785.33 ± 1 kg/m3. It also gave a viscosity ([1]; 318.15 K, c1 = 0.02) of 0.439 ± 0.0093 mPa·s, a viscosity ([1]; 318.15 K, c1 = 0.04) of 0.4469 ± 0.0095 mPa·s and a viscosity ([1]; 318.15 K, c1 = 0.05) of 0.4584 ± 0.0097 mPa·s. It also gave a mass density ([1]; 318.15 K, c1 = 0.02) of 771.06 ± 1 kg/m3, a mass density ([1]; 318.15 K, c1 = 0.04) of 773.92 ± 1 kg/m3 and a mass density ([1]; 318.15 K, c1 = 0.05) of 775.68 ± 1 kg/m3.
Molecule `CO` [methanol] has a viscosity ([2]; 298.15 K) of 0.5451 ± 0.011 mPa·s, a mass density ([2]; 298.15 K) of 786.62 ± 1 kg/m3 and a viscosity ([2]; 308.15 K) of 0.476 ± 0.01 mPa·s. It also gave a mass density ([2]; 308.15 K) of 777.18 ± 1 kg/m3, a viscosity ([2]; 318.15 K) of 0.4183 ± 0.0089 mPa·s and a mass density ([2]; 318.15 K) of 767.74 ± 1 kg/m3.
